The values below come from US20230096781A1, “METHODS OF CONTROLLING BODYWEIGHT BY MODULATING PHOSPHATIDYLINOSITOL 5-PHOSPHATE 4-KINASE BETA ACTIVITY” (University of Cincinnati, priority 2020, published 2023).

The subject of assay [1] is WT-PI5P4Kβ-expressing Pip4K2b^−/− cells. In words: Lysotracker staining of serum-starved MEFs (lysosomal acidification). Format: cell-based, mouse.
Assay [2] relates to isogenic Pip4K2b^−/− cells. The description is as above. Format: cell-based, mouse. The conditions noted are these: 10 μM MPA or 20 μM Link17.

Structures are written as SMILES.

`COc1c(C)c2c(c(O)c1C/C=C(\C)CCC(=O)O)C(=O)OC2` [MPA, mycophenolic acid]: the “lysosomal acidification (lysotracker staining)” value is “suppressed lysosomal acidification” in assay [1] (10 μM MPA or 20 μM Link17); “had a deacidification effect” in assay [1] (10 μM MPA or 20 μM Link17, listed as mycophenolic acid); “not” in assay [2].
